Measurements: EP0465913B1, “Diaminotrifluoromethylpyrimidine derivatives, process for their production and phospholipase A2 inhibitor containing them” (ISHIHARA SANGYO KAISHA, LTD., priority 1990, dated 1992)
Where a name gives a salt, the structure may show the parent alone.

Legend:
[1] = target: T1, Porcine pancreatic phospholipase A2 (Sus scrofa, UniProt P00592); test: Phospholipase A2 inhibitory activity, method B (L-α-dipalmitoylphosphatidylcholine substrate); type: biochemical; details: 37°C for 30 minutes; for inhibition at 1000 ppm: 1,000 ppm, read-out: % inhibition of PLA2 (1,000 ppm)
T1 construct: purchased Boehringer Mannheim·Yamanouchi K.K. 161454·122416
In short: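 Substrate: L-α-dipalmitoylphosphatidylcholine/sodium cholate mixed micelles in 250 mM NaCl, 100 mM Tris-HCl pH 8.0. Enzyme (10 µg/ml stock) incubated with compound in buffer containing CaCl2 and BSA, 30 min at 37 °C. Released free fatty acid measured by ACS-ACOD at 540 nm; % inhibition derived from apparent enzyme concentration read off a standard curve.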

[2] = system: increased vascular permeability induced by acetic acid; test: Inhibitory activity on increased vascular permeability induced by acetic acid (Mouse Whittle method, method C); type: in vivo, ddy male mice; details: amount of leaked dye
In short: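 ddy male mice (4-5 per group) dosed orally with compound in 2% Tween 80 suspension or aqueous salt solution. Dye measured at 600 nm; inhibition % calculated versus vehicle control leakage.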

[3] = system: increased vascular permeability induced by acetic acid; test: Inhibitory activity on increased vascular permeability induced by acetic acid (Rat Whittle method, method D); type: in vivo, SD (Crj: CD) male rats; details: amount of leaked dye
Protocol: Using SD (Crj: CD) male rats, each test group consisted of from 3 to 5 rats. A test compound was mixed with Tween 80 [polyoxyethylenesorbitan monooleate (manufactured by Nacalai Tesque K.K.)], and distilled water was added thereto to obtain a 2% Tween 80 suspension, or it was dissolved in the form of a salt in water to obtain an aqueous solution. A test compound was orally administered, and one hour later, 0.7% acetic acid was intraperitonially injected to each rat in an amount of 0.05 ml/10 g, and at the same time, 2% brilliant blue was intravenously injected into the tail vein in an amount of 0.05 ml/20 g. Thirty minutes after the injection of brilliant blue, the cervical vertebrae were dislocated under anesthesia by chloroform, and the abdorminal cavity was washed with 10 ml of a physiological saline. The washing solution was subjected to centrifugal separation at 3,000 rpm for 10 minutes, and the amount of the dye in the supernatant was measured at 600 nm absorbance by Microplate ELISA Reader (Model 2550EIA Reader, manufactured by Bio-Rad Laboratories). The inhibition rate of the amount of leaked dye in the group to which a test compound was administered relative to the control group was obtained from the following formula, and the results are shown in Table 9. Inhibition rate (%) = (l -(C)/(D)) x 100 [formula] • C: Amount of leaked dye in the group to which a test compound was administered. • D: Amount of leaked dye in the control group.

carrageenin edema = test: Inhibitory activity on carrageenin edema; type: in vivo, Wistar male rats; details: rat, paw swelling volume three hours after carrageenin; for Inhibition rate (%): dose 50 mg/kg orally; for inhibition in vivo at 100 mg/kg: po, 3 h, dose 100 mg/kg orally, read-out: Inhibition rate (%)
In short: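 Male Wistar rats (about 100 g, 5 per group) dosed orally at 200, 100, 50 or 25 mg/kg as 2% Tween 80 suspension or aqueous salt solution, 1 h before subplantar injection of 0.1 ml 1% λ-carrageenin. Paw swelling measured at 3 h; % inhibition versus control group mean swelling.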

T1 sequence (P00592 23-146): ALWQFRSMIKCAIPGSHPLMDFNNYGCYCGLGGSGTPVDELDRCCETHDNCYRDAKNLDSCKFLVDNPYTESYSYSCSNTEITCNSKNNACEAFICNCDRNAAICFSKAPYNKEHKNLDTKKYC

Row | Structure (SMILES) | inhibition at 1000 ppm [1] [%] | Inhibition rate (%) ([2]; dose 10 mg/kg orally) | Inhibition rate (%) (carrageenin edema) | Inhibition rate (%) ([2]; dose 20 mg/kg orally) | further results
1 | Cc1cccc(C(=O)Nc2cc(C(F)(F)F)cnc2NS(C)(=O)=O)c1 [compound 78] | 51 | 32 | 26 |  | Inhibition rate (%) ([3]; dose 25 mg/kg orally): 40%
2 | CS(=O)(=O)Nc1ncc(C(F)(F)F)cc1NC(=O)c1ccccc1 [compound 43] | 49 |  | 31 | 48 | 
3 | CS(=O)(=O)Nc1ncc(C(F)(F)F)cc1NC(=O)C(F)(F)C(F)(F)F [compound 13] | 51 |  |  |  | Inhibition rate (%) ([2]; dose 100 mg/kg orally): 57%; inhibition in vivo at 100 mg/kg (carrageenin edema): 21%
4 | CS(=O)(=O)Nc1ncc(C(F)(F)F)cc1NC(=O)c1ccc(F)cc1 [Compound No. 10, N-(2-methylsulfonylamino-5-trifluoromethyl-3-pyridyl)-4-fluorobenzamide] | 51 | 42 |  |  | inhibition in vivo at 100 mg/kg (carrageenin edema): 28%
5 | CS(=O)(=O)Nc1ncc(C(F)(F)F)cc1NC(=O)c1ccc2c(c1)CCC2 [compound 87] | 88 | 28 | 21 |  | Inhibition rate (%) ([3]; dose 12.5 mg/kg orally): 47%
6 | CCS(=O)(=O)Nc1ncc(C(F)(F)F)cc1NC(=O)C1CCCC1 [compound 94] | 63 |  | 23 | 53 | Inhibition rate (%) ([3]; dose 25 mg/kg orally): 45%
7 | CS(=O)(=O)Nc1ncc(C(F)(F)F)cc1NC(=O)C1CCCC1 [compound 45] | 41 |  | 23 | 29 | 
8 | CCS(=O)(=O)Nc1ncc(C(F)(F)F)cc1NC(=O)C1CCCCC1 [Compound No. 47, N-(2-ethylsulfonylamino-5-trifluoromethyl-3-pyridyl)cyclohexanecarboxamide] | 90 | 46 |  |  | Inhibition rate (%) (carrageenin edema; 50 mg/kg): 41%
9 | C/C=C/C(=O)Nc1cc(C(F)(F)F)cnc1NS(=O)(=O)CC [compound 93, N-(2-ethylsulfonylamino-5-trifluoromethyl-3-pyridyl)crotonamide] | 48 | 40 | 22 |  | Inhibition rate (%) ([3]; dose 25 mg/kg orally): 54%
10 | CS(=O)(=O)Nc1ncc(C(F)(F)F)cc1NC(=O)c1cccc(Cl)c1 [compound 79] | 65 |  | 20 | 67 | Inhibition rate (%) ([3]; dose 50 mg/kg orally): 74%
11 | CCS(=O)(=O)Nc1ncc(C(F)(F)F)cc1NC(=O)C1CCCCC1 [Compound No. 251, sodium salt of N-(2-ethylsulfonylamino-5-trifluoromethyl-3-pyridyl)cyclohexanecarboxamide] |  |  |  |  | % inhibition of PLA2 (1,000 ppm) [1]: 85%; Inhibition rate (%) ([2]; dose 20 mg/kg orally, 20 mg/kg): 43%; Inhibition rate (%) ([3]; dose 12.5 mg/kg orally): 46%; Inhibition rate (%) (carrageenin edema; 50 mg/kg): 30%
12 | CS(=O)(=O)Nc1ncc(C(F)(F)F)cc1NC(=O)c1cc2ccccc2s1 [compound 86] | 93 |  | 27 | 42 | Inhibition rate (%) ([3]; dose 50 mg/kg orally): 37%
